Data reported in ChEMBL document CHEMBL4813991, “Design, synthesis and bioactivity study on 5-phenylfuran derivatives as potent reversal agents against P-glycoprotein-mediated multidrug resistance in MCF-7/ADR cell” (Eur J Med Chem, 2021).
The source made the active and inactive calls. The calls are words filed in the database; no cut-off is given here.

Legend:
MCF7 [1] = experiment: Antiproliferative activity against human MCF7 cells assessed as inhibition rate at 50 uM incubated for 48 hrs by CCK-8 assay; format: functional
[2] = Antiproliferative activity against human MCF7/ADR cells assessed as inhibition rate at 10 uM incubated for 48 hrs by CCK-8 assay; format: functional; conditions: NCI/ADR-RES
MCF7 [3] = experiment: Antiproliferative activity against human MCF7 cells assessed as inhibition rate at 10 uM incubated for 48 hrs by CCK-8 assay; format: functional
[4] = Antiproliferative activity against human MCF7/ADR cells assessed as inhibition rate at 50 uM incubated for 48 hrs by CCK-8 assay; format: functional; conditions: NCI/ADR-RES
[5] = target: T1, ATP-dependent translocase ABCB1 (Homo sapiens, UniProt P08183); experiment: Inhibition of P-glycoprotein in human MCF7/ADR cells assessed as reversal fold by measuring reduction in daunorubicin IC50 at 5 uM incubated for 48 hrs by CCK-8 assay; format: cell-based; conditions: nci/adr-res
NCI/ADR-RES [6] = experiment: Antiproliferative activity against human MCF7/ADR cells incubated for 48 hrs by CCK-8 assay; format: functional, cell-based
[7] = target: T1, ATP-dependent translocase ABCB1; experiment: Inhibition of P-glycoprotein in human MCF7/ADR cells assessed as rhodamine-123 accumulation by measuring fluorescence intensity at 1 uM measured after 30 mins by flow cytometry analysis; format: cell-based; conditions: nci/adr-res, 0.5 h
[8] = target: T1, ATP-dependent translocase ABCB1; experiment: Inhibition of P-glycoprotein in human MCF7/ADR cells assessed as reversal fold by measuring reduction in doxorubicin IC50 at 0.05 uM incubated for 48 hrs by CCK-8 assay; format: cell-based; conditions: nci/adr-res
[9] = target: T1, ATP-dependent translocase ABCB1; experiment: Inhibition of P-glycoprotein in human MCF7/ADR cells assessed as rhodamine-123 accumulation by measuring fluorescence intensity at 10 uM measured after 30 mins by flow cytometry analysis; format: cell-based; conditions: nci/adr-res, 0.5 h
[10] = target: T1, ATP-dependent translocase ABCB1; experiment: Inhibition of P-glycoprotein in human MCF7/ADR cells assessed as rhodamine-123 accumulation by measuring fluorescence intensity at 0.1 uM measured after 30 mins by flow cytometry analysis; format: cell-based; conditions: nci/adr-res, 0.5 h
[11] = target: T1, ATP-dependent translocase ABCB1; experiment: Inhibition of P-glycoprotein in human MCF7/ADR cells assessed as reversal fold by measuring reduction in doxorubicin IC50 at 0.5 uM incubated for 48 hrs by CCK-8 assay; format: cell-based; conditions: nci/adr-res
NCI/ADR-RES [12] = experiment: Effect on P-glycoprotein expression in human MCF7/ADR cells upto 10 uM after 48 hrs by Western blot analysis; format: functional, cell-based; conditions: dose microM <=10, time 48.0 hrs
[13] = target: T1, ATP-dependent translocase ABCB1; experiment: Inhibition of P-glycoprotein in human MCF7/ADR cells assessed as reversal fold by measuring reduction in paclitaxel IC50 at 5 uM incubated for 48 hrs by CCK-8 assay; format: cell-based; conditions: nci/adr-res
[14] = target: T1, ATP-dependent translocase ABCB1; experiment: Inhibition of P-glycoprotein in human MCF7/ADR cells assessed as reversal fold by measuring reduction in vincristine IC50 at 5 uM incubated for 48 hrs by CCK-8 assay; format: cell-based; conditions: nci/adr-res

T1 sequence (P08183 whole entry): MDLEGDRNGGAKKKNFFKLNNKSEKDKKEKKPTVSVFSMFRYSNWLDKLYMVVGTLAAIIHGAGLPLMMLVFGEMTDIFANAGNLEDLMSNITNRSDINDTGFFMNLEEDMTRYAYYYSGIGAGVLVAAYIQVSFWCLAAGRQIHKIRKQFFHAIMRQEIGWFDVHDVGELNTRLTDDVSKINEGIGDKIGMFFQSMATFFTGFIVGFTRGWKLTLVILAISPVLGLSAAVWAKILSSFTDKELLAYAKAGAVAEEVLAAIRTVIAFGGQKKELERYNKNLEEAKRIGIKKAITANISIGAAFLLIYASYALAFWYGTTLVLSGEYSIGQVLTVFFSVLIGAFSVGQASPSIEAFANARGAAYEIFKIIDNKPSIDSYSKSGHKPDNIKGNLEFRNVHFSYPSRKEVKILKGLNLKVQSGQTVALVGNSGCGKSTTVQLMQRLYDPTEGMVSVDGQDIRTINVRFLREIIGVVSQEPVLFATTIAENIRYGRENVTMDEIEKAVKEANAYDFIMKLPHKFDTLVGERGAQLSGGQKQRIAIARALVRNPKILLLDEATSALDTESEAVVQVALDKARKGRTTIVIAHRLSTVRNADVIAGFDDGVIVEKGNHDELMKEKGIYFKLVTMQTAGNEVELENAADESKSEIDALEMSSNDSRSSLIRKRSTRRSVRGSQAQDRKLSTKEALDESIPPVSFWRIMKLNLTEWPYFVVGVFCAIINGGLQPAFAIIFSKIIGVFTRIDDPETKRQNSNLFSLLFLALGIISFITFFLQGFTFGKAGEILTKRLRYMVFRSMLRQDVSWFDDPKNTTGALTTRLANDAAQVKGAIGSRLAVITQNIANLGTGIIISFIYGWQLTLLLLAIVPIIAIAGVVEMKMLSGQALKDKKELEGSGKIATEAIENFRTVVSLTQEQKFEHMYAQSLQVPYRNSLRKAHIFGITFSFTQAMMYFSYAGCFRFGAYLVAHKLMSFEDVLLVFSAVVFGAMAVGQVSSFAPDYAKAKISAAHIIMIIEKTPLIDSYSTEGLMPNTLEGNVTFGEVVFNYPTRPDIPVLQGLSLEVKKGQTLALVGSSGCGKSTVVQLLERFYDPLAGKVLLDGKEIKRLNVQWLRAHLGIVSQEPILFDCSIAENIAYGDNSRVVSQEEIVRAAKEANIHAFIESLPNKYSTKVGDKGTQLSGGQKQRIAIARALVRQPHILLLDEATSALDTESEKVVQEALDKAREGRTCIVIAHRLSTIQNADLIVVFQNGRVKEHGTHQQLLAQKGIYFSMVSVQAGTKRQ

Row | SMILES | inhibition at 50 µM (MCF7 [1]) [%] | inhibition at 10 µM (MCF7 [3]) [%] | inhibition at 50 µM [4] [%] | also measured
1 | COc1ccc(-c2ccc(C(=O)N3CCc4cc(OC)c(OC)cc4C3)o2)c(OC)c1 | 49.3 | 15.4 | 59.8 | inhibition at 10 µM [2]: 28.4%
2 | COc1cccc2c1C(=O)c1c(O)c3c(c(O)c1C2=O)C[C@@](O)(C(C)=O)C[C@@H]3O[C@H]1C[C@H](N)[C@H](O)[C@H](C)O1 [DAUNORUBICIN] |  |  |  | fold change (FC) [5]: 2.8; IC50 (NCI/ADR-RES [6]): 51.6 µM
3 | COc1ccc(OC)c(-c2ccc(C(=O)N3CCc4cc(OC)c(OC)cc4C3)o2)c1 | 63.6 | 11.4 | 68.2 | inhibition at 10 µM [2]: 23.2%
4 | CCCCOc1ccc(-c2ccc(C(=O)N3CCc4cc(OC)c(OC)cc4C3)o2)cc1 | 21 |  | 25.4 | 
5 | CCCOc1ccc(-c2ccc(C(=O)N3CCc4cc(OC)c(OC)cc4C3)o2)cc1 | 36.2 |  | 32.3 | 
6 | COc1cc2c(cc1OC)CN(C(=O)c1ccc(-c3ccccc3OC)o1)CC2 | 66 | 55.9 | 36.9 | 
7 | COc1cc2c(cc1OC)CN(C(=O)c1ccc(-c3ccc(SC(C)C)cc3)o1)CC2 | 33.6 |  | 39 | 
8 | COc1cc2c(cc1OC)CN(C(=O)c1ccc(-c3cccc(OC)c3OC)o1)CC2 | 39.4 |  | 10 | 
9 | COc1ccc(-c2ccc(C(=O)N3CCc4cc(OC)c(OC)cc4C3)o2)cc1 | 20.4 |  | -2.1 | 
10 | CCOc1ccc(-c2ccc(C(=O)N3CCc4cc(OC)c(OC)cc4C3)o2)cc1 | 20.5 |  | 8.1 | 
11 | COc1ccc(CCN(C)CCCC(C#N)(c2ccc(OC)c(OC)c2)C(C)C)cc1OC (stereo unspecified) |  | 8.3 |  | inhibition at 10 µM [2]: 25%
12 | COc1cc2c(cc1OC)CN(C(=O)c1ccc(-c3ccc(OC(C)(C)C)cc3)o1)CC2 | 33.8 |  | 28.9 | 
13 | C/C=C/C[C@@H](C)[C@@H](O)[C@H]1C(=O)N[C@@H](CC)C(=O)N(C)CC(=O)N(C)[C@@H](CC(C)C)C(=O)N[C@@H](C(C)C)C(=O)N(C)[C@@H](CC(C)C)C(=O)N[C@@H](C)C(=O)N[C@H](C)C(=O)N(C)[C@@H](CC(C)C)C(=O)N(C)[C@@H](CC(C)C)C(=O)N(C)[C@@H](C(C)C)C(=O)N1C [CYCLOSPORINE] |  | 19.3 |  | inhibition at 10 µM [2]: 22.7%
14 | COc1cc2c(cc1OC)CN(C(=O)c1ccc(-c3cc(OC)c(OC)c(OC)c3)o1)CC2 | 64.7 | 30 | 51.2 | inhibition at 10 µM [2]: 19.6%
15 | COc1ccc(-c2ccc(C(=O)N3CCc4cc(OC)c(OC)cc4C3)o2)cc1OC | 41.8 | 17.6 | 26.7 | 
16 | COc1cc2c(cc1OC)CN(C(=O)c1ccc(-c3ccc(OC(C)C)cc3)o1)CC2 | 38.1 |  | 20 | inhibition (INH) [7]: Active; fold change (FC) [8]: 1.9; inhibition (INH) [9]: Active; inhibition (INH) [10]: Not Active; fold change (FC) [11]: 6.7; Activity (NCI/ADR-RES [12]): inactive
17 | COc1cc2c(cc1OC)CN(C(=O)c1ccc(-c3ccc4c(c3)OCO4)o1)CC2 | 34 |  | 5.4 | 
18 | COc1cc2c(cc1OC)CN(C(=O)c1ccc(-c3ccc(OCC(C)C)cc3)o1)CC2 | 19.2 |  | 11.9 | 
19 | CC(=O)O[C@H]1C(=O)[C@@]2(C)[C@H]([C@H](OC(=O)c3ccccc3)[C@]3(O)C[C@H](OC(=O)[C@H](O)[C@@H](NC(=O)c4ccccc4)c4ccccc4)C(C)=C1C3(C)C)[C@]1(OC(C)=O)CO[C@@H]1C[C@@H]2O [PACLITAXEL] |  |  |  | fold change (FC) [13]: 22.6; IC50 (NCI/ADR-RES [6]): 58.7 µM
20 | CC[C@]1(O)C[C@H]2CN(CCc3c([nH]c4ccccc34)[C@@](C(=O)OC)(c3cc4c(cc3OC)N(C=O)[C@H]3[C@@](O)(C(=O)OC)[C@H](OC(C)=O)[C@]5(CC)C=CCN6CC[C@]43[C@@H]65)C2)C1 [VINCRISTINE] |  |  |  | IC50 (NCI/ADR-RES [6]): 10.1 µM; fold change (FC) [14]: 62.8
21 | COc1cc2c(cc1OC)CN(C(=O)c1ccc(-c3ccc(Oc4ccccc4)cc3)o1)CC2 | 45.4 | 7 | 57 | inhibition at 10 µM [2]: 27.6%
22 | COc1cc2c(cc1OC)CN(C(=O)c1ccc(-c3ccc(OC(F)(F)F)cc3)o1)CC2 | -4.1 |  | 12.7 | 
23 | COc1cccc(-c2ccc(C(=O)N3CCc4cc(OC)c(OC)cc4C3)o2)c1 | -9.9 |  | 1.5 | 
24 | COc1cc(OC)cc(-c2ccc(C(=O)N3CCc4cc(OC)c(OC)cc4C3)o2)c1 | 81.8 | 19.8 | 52.9 | inhibition at 10 µM [2]: 21.7%
